Reference: patent US20080009418A1, “Selective Inhibitors” (Alchemia LTD., priority 2004, published 2008)

Key:
Human δ-opioid (DOP) = biological target: T1, Human δ-opioid (DOP) (Homo sapiens, UniProt P41143); assay: Radioligand binding, human δ-opioid (DOP) membranes, FlashPlate, [3H]-Bremazocine; conditions: compound at 10 μM; for A1 radioligand binding inhibition: human δ-opioid (DOP) membranes
T1 construct: purchased Perkin Elmer Biosignal
Summary of the method: (§1)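 Cloned human receptor membranes were coated onto FlashPlate wells and incubated with radioligand and compound (added from a 0.5 mM DMSO daughter plate) for 1 hour at room temperature in the dark. Scintillation counting gave percent inhibition, with DMSO defining total and reference ligand defining non-specific binding.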

Human Melanocortin (MC4) = biological target: T2, Human Melanocortin (MC4) (Homo sapiens, UniProt P32245); assay: Radioligand binding, human melanocortin MC4 membranes, FlashPlate, [125I]-NDP-αMSH; conditions: compound at 10 μM; for A4 radioligand binding inhibition: human melanocortin MC4 membranes
T2 construct: purchased Perkin Elmer Biosignal
Summary of the method: as §1

Human neurokinin (NK1) = biological target: T3, Human neurokinin (NK1) (Homo sapiens, UniProt P25103); assay: Radioligand binding, human neurokinin NK1 membranes, filtration, [125I]-Substance P; conditions: compound at 10 μM; for A8 radioligand binding inhibition: human neurokinin NK1 membranes
T3 construct: purchased Perkin Elmer Biosignal
Summary of the method: (§2)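 Membranes from cloned human receptors were incubated with compound and radioligand for 1 hour at room temperature. Bound ligand was collected on 0.3% PEI-soaked filters, washed with cold 50 mM Tris-HCl pH 7.4, and counted by scintillation. Percent inhibition was computed against DMSO totals and reference-ligand nonspecific wells.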

Human μ-opioid (MOP) = biological target: T4, Human μ-opioid (MOP) (Homo sapiens, UniProt P35372); assay: Radioligand binding, human μ-opioid (MOP) membranes, FlashPlate, [3H]-Naloxone; conditions: compound at 10 μM; for A7 radioligand binding inhibition: human μ-opioid (MOP) membranes
T4 construct: purchased Perkin Elmer Biosignal
Summary of the method: as §1

Human melanocortin (MC5) = biological target: T5, Human melanocortin (MC5) (Homo sapiens, UniProt P33032); assay: Radioligand binding, human melanocortin MC5 membranes, FlashPlate, [125I]-NDP-αMSH; conditions: compound at 10 μM; for A5 radioligand binding inhibition: human melanocortin MC5 membranes
T5 construct: purchased Perkin Elmer Biosignal
Summary of the method: as §1

Human opioid (ORL1) = biological target: T6, Human opioid (ORL1) (Homo sapiens, UniProt P41146); assay: Radioligand binding, human opioid ORL1 membranes, FlashPlate, [125I]-Nociceptin; conditions: compound at 10 μM
T6 construct: purchased Perkin Elmer Biosignal
Summary of the method: as §1

[1] = biological target: T7, Human neuropeptide Y (NPY-Y1) (Homo sapiens, UniProt P25929); assay: Radioligand binding, human neuropeptide Y NPY-Y1 membranes, FlashPlate, [125I]-PYY; conditions: compound at 10 μM
T7 construct: purchased Perkin Elmer Biosignal
T7 sequence (P25929 1-384): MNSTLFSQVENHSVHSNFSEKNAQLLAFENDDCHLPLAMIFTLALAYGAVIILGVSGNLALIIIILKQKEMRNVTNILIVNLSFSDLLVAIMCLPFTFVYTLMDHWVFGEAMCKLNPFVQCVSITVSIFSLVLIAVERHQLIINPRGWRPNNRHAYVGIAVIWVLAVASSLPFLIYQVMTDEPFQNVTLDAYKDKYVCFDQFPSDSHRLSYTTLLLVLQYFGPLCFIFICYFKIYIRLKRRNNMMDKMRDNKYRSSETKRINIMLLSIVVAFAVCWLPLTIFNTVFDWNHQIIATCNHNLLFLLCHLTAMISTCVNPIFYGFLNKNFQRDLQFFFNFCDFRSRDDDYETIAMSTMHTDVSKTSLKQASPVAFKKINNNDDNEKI
Summary of the method: as §1

Human κ-Opioid (KOP) = biological target: T8, Human κ-Opioid (KOP) (Homo sapiens, UniProt P41145); assay: Radioligand binding, human κ-opioid (KOP) membranes, filtration, [3H]-Diprenorphine; conditions: compound at 10 μM; for A2 radioligand binding inhibition: human κ-opioid (KOP) membranes
T8 construct: purchased Perkin Elmer Biosignal
Summary of the method: as §2

Human Melanocortin (MC3) = biological target: T9, Human Melanocortin (MC3) (Homo sapiens, UniProt P41968); assay: Radioligand binding, human melanocortin MC3 membranes, FlashPlate, [125I]-NDP-αMSH; conditions: compound at 10 μM; for A3 radioligand binding inhibition: human melanocortin MC3 membranes
T9 construct: purchased Perkin Elmer Biosignal
Summary of the method: as §1

[2] = biological target: T10, Human melanin-concentrating hormone (MCH1) (Homo sapiens, UniProt Q99705); assay: Radioligand binding, human melanin-concentrating hormone MCH1 membranes, FlashPlate, [125I]-S36057; conditions: compound at 10 μM; for A6 radioligand binding inhibition: human MCH1 membranes
T10 construct: purchased Perkin Elmer Biosignal
Summary of the method: as §1

Mouse urotensin (mUR2) = biological target: T11, Mouse urotensin (mUR2) (Mus musculus, UniProt Q8VIH9); assay: Radioligand binding, mouse urotensin mUR2 membranes, FlashPlate, [125I]-Urotensin II; conditions: compound at 10 μM; for A11 radioligand binding inhibition: mouse urotensin mUR2 membranes
T11 construct: purchased Perkin Elmer Biosignal
T11 sequence (Q8VIH9 1-385): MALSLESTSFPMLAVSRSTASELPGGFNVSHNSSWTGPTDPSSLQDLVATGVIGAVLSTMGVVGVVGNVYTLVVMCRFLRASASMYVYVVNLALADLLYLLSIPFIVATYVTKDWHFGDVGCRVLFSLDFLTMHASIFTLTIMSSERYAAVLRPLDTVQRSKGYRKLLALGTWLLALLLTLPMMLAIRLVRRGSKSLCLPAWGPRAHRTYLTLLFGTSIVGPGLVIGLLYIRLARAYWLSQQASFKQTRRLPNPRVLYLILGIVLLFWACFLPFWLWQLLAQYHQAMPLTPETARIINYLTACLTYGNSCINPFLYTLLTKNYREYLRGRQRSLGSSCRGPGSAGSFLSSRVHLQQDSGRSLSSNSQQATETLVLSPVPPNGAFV
Summary of the method: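 Cloned mouse urotensin (mUR2) receptor membranes from Perkin Elmer Biosignal were immobilized in FlashPlate microplates using a proprietary coating. Each well got 19.5 μl buffer, then 0.5 μl of DMSO, reference ligand, or compound. Adding 5 μl of [125I]-Urotensin II, diluted to 5× final concentration in binding buffer, started binding. Plates were sealed with TopSeal-A and incubated 1 hour at room temperature in the dark. Wells were counted for 30 seconds each on a TopCount after a 60-second delay, and percentage inhibition was calculated.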

T3 sequence (P25103 whole entry): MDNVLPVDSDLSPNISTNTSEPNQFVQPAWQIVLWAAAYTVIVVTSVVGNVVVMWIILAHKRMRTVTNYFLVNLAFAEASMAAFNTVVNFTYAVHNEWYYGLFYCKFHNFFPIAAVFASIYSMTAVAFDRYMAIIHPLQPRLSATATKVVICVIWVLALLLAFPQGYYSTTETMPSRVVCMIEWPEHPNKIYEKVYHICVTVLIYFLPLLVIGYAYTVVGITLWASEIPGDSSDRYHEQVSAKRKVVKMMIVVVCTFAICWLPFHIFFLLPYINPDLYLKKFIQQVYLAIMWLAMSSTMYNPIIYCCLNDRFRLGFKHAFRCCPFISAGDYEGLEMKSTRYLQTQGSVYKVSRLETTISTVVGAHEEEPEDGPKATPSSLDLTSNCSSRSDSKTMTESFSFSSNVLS
T8 sequence (P41145 whole entry): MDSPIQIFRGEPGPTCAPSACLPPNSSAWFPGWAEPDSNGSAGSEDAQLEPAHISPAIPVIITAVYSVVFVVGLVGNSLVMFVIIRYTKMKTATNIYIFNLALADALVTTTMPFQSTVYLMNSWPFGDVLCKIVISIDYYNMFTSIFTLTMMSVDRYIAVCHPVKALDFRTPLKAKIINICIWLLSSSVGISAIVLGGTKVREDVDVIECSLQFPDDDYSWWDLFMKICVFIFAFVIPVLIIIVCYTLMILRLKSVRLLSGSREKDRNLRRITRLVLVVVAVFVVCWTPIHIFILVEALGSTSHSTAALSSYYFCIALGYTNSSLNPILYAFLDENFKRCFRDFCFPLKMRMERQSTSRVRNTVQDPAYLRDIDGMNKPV
T5 sequence (P33032 whole entry): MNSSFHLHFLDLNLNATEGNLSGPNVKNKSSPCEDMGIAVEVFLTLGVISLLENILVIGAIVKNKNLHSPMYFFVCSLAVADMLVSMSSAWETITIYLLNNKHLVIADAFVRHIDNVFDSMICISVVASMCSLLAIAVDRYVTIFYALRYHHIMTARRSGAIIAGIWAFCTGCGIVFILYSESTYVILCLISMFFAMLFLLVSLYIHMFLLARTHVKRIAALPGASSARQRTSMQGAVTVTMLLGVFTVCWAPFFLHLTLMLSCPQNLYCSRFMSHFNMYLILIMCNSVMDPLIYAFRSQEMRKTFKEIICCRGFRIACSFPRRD
T9 sequence (P41968 whole entry): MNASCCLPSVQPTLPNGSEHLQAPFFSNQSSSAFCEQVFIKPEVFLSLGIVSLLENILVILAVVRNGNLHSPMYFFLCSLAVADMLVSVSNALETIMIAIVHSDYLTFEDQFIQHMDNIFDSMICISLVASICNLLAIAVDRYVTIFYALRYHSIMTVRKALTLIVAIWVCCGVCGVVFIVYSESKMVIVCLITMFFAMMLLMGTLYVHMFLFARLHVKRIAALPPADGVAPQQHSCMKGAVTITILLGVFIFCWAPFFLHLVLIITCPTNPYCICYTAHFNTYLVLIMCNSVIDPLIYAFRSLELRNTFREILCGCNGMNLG
T2 sequence (P32245 whole entry): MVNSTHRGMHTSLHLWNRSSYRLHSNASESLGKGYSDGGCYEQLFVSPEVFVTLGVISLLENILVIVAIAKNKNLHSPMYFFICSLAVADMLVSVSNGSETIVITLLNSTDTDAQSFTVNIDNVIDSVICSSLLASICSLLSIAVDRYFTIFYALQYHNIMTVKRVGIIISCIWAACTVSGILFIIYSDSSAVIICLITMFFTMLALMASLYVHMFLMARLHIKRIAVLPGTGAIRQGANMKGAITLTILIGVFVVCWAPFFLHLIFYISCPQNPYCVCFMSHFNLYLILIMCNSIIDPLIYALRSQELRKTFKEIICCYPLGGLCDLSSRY
T1 sequence (P41143 whole entry): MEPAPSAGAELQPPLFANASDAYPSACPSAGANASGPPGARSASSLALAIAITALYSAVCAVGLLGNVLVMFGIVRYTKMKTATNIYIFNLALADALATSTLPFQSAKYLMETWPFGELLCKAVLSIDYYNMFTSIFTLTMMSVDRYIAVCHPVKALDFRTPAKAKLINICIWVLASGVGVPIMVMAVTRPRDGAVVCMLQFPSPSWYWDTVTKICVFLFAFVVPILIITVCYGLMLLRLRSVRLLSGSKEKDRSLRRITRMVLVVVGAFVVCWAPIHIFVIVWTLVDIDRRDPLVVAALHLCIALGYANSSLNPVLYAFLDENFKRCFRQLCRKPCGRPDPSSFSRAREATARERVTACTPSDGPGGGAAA
T10 sequence (Q99705 whole entry): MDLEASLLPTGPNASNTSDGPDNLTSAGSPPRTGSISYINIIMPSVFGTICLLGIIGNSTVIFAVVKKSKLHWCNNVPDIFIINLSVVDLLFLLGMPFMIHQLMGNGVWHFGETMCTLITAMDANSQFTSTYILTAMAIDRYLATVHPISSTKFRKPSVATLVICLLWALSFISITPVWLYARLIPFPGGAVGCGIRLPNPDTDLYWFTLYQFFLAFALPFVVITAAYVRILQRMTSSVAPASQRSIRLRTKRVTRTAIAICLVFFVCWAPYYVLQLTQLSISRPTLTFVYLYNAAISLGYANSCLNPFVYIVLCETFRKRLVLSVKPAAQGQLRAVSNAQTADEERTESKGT
T6 sequence (P41146 whole entry): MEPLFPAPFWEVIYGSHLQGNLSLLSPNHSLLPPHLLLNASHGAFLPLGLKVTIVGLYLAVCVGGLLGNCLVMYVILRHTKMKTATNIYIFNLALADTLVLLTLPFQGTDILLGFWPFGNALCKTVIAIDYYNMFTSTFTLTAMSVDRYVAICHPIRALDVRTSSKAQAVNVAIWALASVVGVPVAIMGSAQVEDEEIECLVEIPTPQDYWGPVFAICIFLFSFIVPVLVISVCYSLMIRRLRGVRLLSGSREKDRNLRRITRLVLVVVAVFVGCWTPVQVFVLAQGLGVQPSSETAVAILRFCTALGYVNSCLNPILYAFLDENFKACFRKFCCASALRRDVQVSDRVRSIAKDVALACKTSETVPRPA
T4 sequence (P35372 whole entry): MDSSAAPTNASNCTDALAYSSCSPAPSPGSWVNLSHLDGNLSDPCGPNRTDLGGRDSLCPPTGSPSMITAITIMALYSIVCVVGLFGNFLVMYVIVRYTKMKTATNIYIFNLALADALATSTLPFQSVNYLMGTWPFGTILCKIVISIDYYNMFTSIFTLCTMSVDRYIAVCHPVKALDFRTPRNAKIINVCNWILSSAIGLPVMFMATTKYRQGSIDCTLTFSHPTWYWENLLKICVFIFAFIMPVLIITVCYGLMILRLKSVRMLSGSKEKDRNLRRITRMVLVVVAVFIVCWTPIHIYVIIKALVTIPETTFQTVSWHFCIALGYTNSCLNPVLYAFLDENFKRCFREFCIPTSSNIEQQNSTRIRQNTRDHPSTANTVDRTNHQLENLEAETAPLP

## NCCC(=O)N[C@H]1C(OCc2ccc3ccccc3c2)O[C@H](COCc2ccccc2)[C@@H](O)[C@@H]1OCc1ccc(Cl)cc1 (stereo partly shown) [compound 439]
Human δ-opioid (DOP); [3H]-Bremazocine, human DOP membranes
  A1: inhibition of radioligand binding: − (“−” indicates less than 50% inhibition at 10 μM)
Human Melanocortin (MC4); [125I]-NDP-αMSH, human MC4 membranes, 10 µM
  A4: inhibition of radioligand binding: + (“+” indicates greater than 50% inhibition at 10 μM)
Human neurokinin (NK1); [125I]-Substance P, human NK1 membranes
  A8: inhibition of radioligand binding: + (“+” indicates greater than 50% inhibition at 10 μM)
Human μ-opioid (MOP); [3H]-Naloxone, human MOP membranes
  A7: inhibition of radioligand binding: − (“−” indicates less than 50% inhibition at 10 μM)
Human melanocortin (MC5); [125I]-NDP-αMSH, human MC5 membranes, 10 µM
  A5: inhibition of radioligand binding: + (“+” indicates greater than 50% inhibition at 10 μM)
Human opioid (ORL1); [125I]-Nociceptin, human ORL1 membranes
  A10: inhibition of radioligand binding: − (“−” indicates less than 50% inhibition at 10 μM)
[1]; [125I]-PYY, human NPY-Y1 membranes
  A9: inhibition of radioligand binding: − (“−” indicates less than 50% inhibition at 10 μM)
Human κ-Opioid (KOP); [3H]-Diprenorphine, human KOP membranes
  A2: inhibition of radioligand binding: − (“−” indicates less than 50% inhibition at 10 μM)
Human Melanocortin (MC3); [125I]-NDP-αMSH, human MC3 membranes
  A3: inhibition of radioligand binding: − (“−” indicates less than 50% inhibition at 10 μM)
[2]; [125I]-S36057, human MCH1 membranes, 10 µM
  A6: inhibition of radioligand binding: − (“−” indicates less than 50% inhibition at 10 μM)
Mouse urotensin (mUR2); [125I]-Urotensin II, mouse mUR2 membranes
  A11: inhibition of radioligand binding: − (“−” indicates less than 50% inhibition at 10 μM)

## CSC1OC(COCc2ccc(Cl)cc2)C(O)C(OCc2ccccc2)C1NC(=O)CNC(=N)N (stereo not shown) [compound 253]
Human δ-opioid (DOP); [3H]-Bremazocine, FlashPlate
  A1: inhibition of radioligand binding: − (“−” indicates less than 50% inhibition at 10 μM)
Human Melanocortin (MC4); [125I]-NDP-αMSH, FlashPlate
  A4: inhibition of radioligand binding: − (“−” indicates less than 50% inhibition at 10 μM)
Human neurokinin (NK1); [125I]-Substance P, filtration
  A8: inhibition of radioligand binding: + (“+” indicates greater than 50% inhibition at 10 μM)
Human μ-opioid (MOP); [3H]-Naloxone, FlashPlate
  A7: inhibition of radioligand binding: − (“−” indicates less than 50% inhibition at 10 μM)
Human melanocortin (MC5); [125I]-NDP-αMSH, FlashPlate
  A5: inhibition of radioligand binding: + (“+” indicates greater than 50% inhibition at 10 μM)
Human opioid (ORL1); [125I]-Nociceptin, FlashPlate
  A10: inhibition of radioligand binding: − (“−” indicates less than 50% inhibition at 10 μM)
[1]; [125I]-PYY, FlashPlate
  A9: inhibition of radioligand binding: − (“−” indicates less than 50% inhibition at 10 μM)
Human κ-Opioid (KOP); [3H]-Diprenorphine, filtration
  A2: inhibition of radioligand binding: − (“−” indicates less than 50% inhibition at 10 μM)
Human Melanocortin (MC3); [125I]-NDP-αMSH, FlashPlate
  A3: inhibition of radioligand binding: − (“−” indicates less than 50% inhibition at 10 μM)
[2]; [125I]-S36057, FlashPlate
  A6: inhibition of radioligand binding: − (“−” indicates less than 50% inhibition at 10 μM)
Mouse urotensin (mUR2); [125I]-Urotensin II, FlashPlate
  A11: inhibition of radioligand binding: − (“−” indicates less than 50% inhibition at 10 μM)

## CO[C@H]1[C@H](O)[C@@H](COCc2ccc(Cl)cc2)OC(OCc2ccc(-c3ccccc3)cc2)[C@@H]1NC(=O)CCNC(=N)N (stereo partly shown) [compound 63]
Human δ-opioid (DOP)
  A1 radioligand binding inhibition: − (“−” indicates less than 50% inhibition at 10 μM)
Human Melanocortin (MC4)
  A4 radioligand binding inhibition: + (“+” indicates greater than 50% inhibition at 10 μM)
Human neurokinin (NK1)
  A8 radioligand binding inhibition: + (“+” indicates greater than 50% inhibition at 10 μM)
Human μ-opioid (MOP)
  A7 radioligand binding inhibition: + (“+” indicates greater than 50% inhibition at 10 μM)
Human melanocortin (MC5)
  A5 radioligand binding inhibition: + (“+” indicates greater than 50% inhibition at 10 μM)
Human opioid (ORL1); human ORL1 membranes
  A10 radioligand binding inhibition: + (“+” indicates greater than 50% inhibition at 10 μM)
[1]; human NPY-Y1 membranes
  A9 radioligand binding inhibition: + (“+” indicates greater than 50% inhibition at 10 μM)
Human κ-Opioid (KOP)
  A2 radioligand binding inhibition: + (“+” indicates greater than 50% inhibition at 10 μM)
Human Melanocortin (MC3)
  A3 radioligand binding inhibition: + (“+” indicates greater than 50% inhibition at 10 μM)
[2]
  A6 radioligand binding inhibition: + (“+” indicates greater than 50% inhibition at 10 μM)
Mouse urotensin (mUR2)
  A11 radioligand binding inhibition: − (“−” indicates less than 50% inhibition at 10 μM)

## COC[C@H]1OC(OCCc2ccccc2)[C@H](NC(=O)CCNC(=N)N)[C@@H](OCc2ccc(-c3ccccc3)cc2)[C@@H]1O (stereo partly shown) [compound 41]
Human δ-opioid (DOP)
  A1 radioligand binding inhibition: − (“−” indicates less than 50% inhibition at 10 μM)
Human Melanocortin (MC4)
  A4 radioligand binding inhibition: + (“+” indicates greater than 50% inhibition at 10 μM)
Human neurokinin (NK1)
  A8 radioligand binding inhibition: + (“+” indicates greater than 50% inhibition at 10 μM)
Human μ-opioid (MOP)
  A7 radioligand binding inhibition: − (“−” indicates less than 50% inhibition at 10 μM)
Human melanocortin (MC5)
  A5 radioligand binding inhibition: + (“+” indicates greater than 50% inhibition at 10 μM)
Human opioid (ORL1); human ORL1 membranes
  A10 radioligand binding inhibition: − (“−” indicates less than 50% inhibition at 10 μM)
[1]; human NPY-Y1 membranes
  A9 radioligand binding inhibition: − (“−” indicates less than 50% inhibition at 10 μM)
Human κ-Opioid (KOP)
  A2 radioligand binding inhibition: − (“−” indicates less than 50% inhibition at 10 μM)
Human Melanocortin (MC3)
  A3 radioligand binding inhibition: − (“−” indicates less than 50% inhibition at 10 μM)
[2]
  A6 radioligand binding inhibition: + (“+” indicates greater than 50% inhibition at 10 μM)
Mouse urotensin (mUR2)
  A11 radioligand binding inhibition: − (“−” indicates less than 50% inhibition at 10 μM)

## CSC1OC(COCc2ccccc2)C(O)C(OCc2ccc3ccccc3c2)C1NC(=O)CCNC(=N)N (stereo not shown) [compound 303]
Human δ-opioid (DOP); [3H]-Bremazocine
  A1: inhibition of radioligand binding, human δ-opioid (DOP): − (“−” indicates less than 50% inhibition at 10 μM)
Human Melanocortin (MC4); [125I]-NDP-αMSH
  A4: inhibition of radioligand binding, human melanocortin (MC4): + (“+” indicates greater than 50% inhibition at 10 μM)
Human neurokinin (NK1); [125I]-Substance P
  A8: inhibition of radioligand binding, human neurokinin (NK1): + (“+” indicates greater than 50% inhibition at 10 μM)
Human μ-opioid (MOP); [3H]-Naloxone
  A7: inhibition of radioligand binding, human μ-opioid (MOP): − (“−” indicates less than 50% inhibition at 10 μM)
Human melanocortin (MC5); [125I]-NDP-αMSH
  A5: inhibition of radioligand binding, human melanocortin (MC5): + (“+” indicates greater than 50% inhibition at 10 μM)
Human opioid (ORL1); [125I]-Nociceptin
  A10: inhibition of radioligand binding, human opioid (ORL1): − (“−” indicates less than 50% inhibition at 10 μM)
[1]; [125I]-PYY
  A9: inhibition of radioligand binding, human neuropeptide Y (NPY-Y1): − (“−” indicates less than 50% inhibition at 10 μM)
Human κ-Opioid (KOP); [3H]-Diprenorphine
  A2: inhibition of radioligand binding, human κ-opioid (KOP): − (“−” indicates less than 50% inhibition at 10 μM)
Human Melanocortin (MC3); [125I]-NDP-αMSH
  A3: inhibition of radioligand binding, human melanocortin (MC3): − (“−” indicates less than 50% inhibition at 10 μM)
[2]; [125I]-S36057
  A6: inhibition of radioligand binding, human melanin-concentrating hormone (MCH1): − (“−” indicates less than 50% inhibition at 10 μM)
Mouse urotensin (mUR2); [125I]-Urotensin II
  A11: inhibition of radioligand binding, mouse urotensin (mUR2): − (“−” indicates less than 50% inhibition at 10 μM)
